In patent publication US10633419B2, “Immunomodulators” (BRISTOL-MYERS SQUIBB COMPANY, priority 2014, dated 2020):
Like-named read-outs stand apart in the source and are kept apart here. Starred links: 1 amine or outer side, 2 acyl side, 3 side chain; linkers in the order of their positions; H or OH if unused. Positions of bridges follow the written chain, without caps; N, C: chain ends. Non-standard residues stand in square brackets, D forms with d. Residues, ends and D or L forms follow the SMILES beside them. *: point of attachment. δOrn(Nα-Octadecanedioyl) = O=C(O)CCCCCCCCCCCCCCCCC(=O)N[C@@H](CCCN*)C(=O)O; X6 = O=C(O)CCCCCCCCCCCCCCCCC(=O)N[C@@H](CCC(=O)NCCCOCCOCCOCCCN*)C(=O)O; X13 = O=C(O)CCCCCCCCCCCCCCC(=O)N[C@@H](CCC(=O)NCCCOCCOCCOCCCN*)C(=O)O; Trp(1-CH2COOH) = N[C@@H](Cc1cn(CC(=O)O)c2ccccc12)C(=O)O; X9 = O=C(O)CCCCCCCCCCCCCCCCC(=O)N[C@@H](CCN*)C(=O)O; X10 = O=C(O)CCCCCCCCCCCCCCC(=O)N[C@@H](CN*)C(=O)O; γGlu = O=C(O)[C@H](CCC(=O)[*:2])N[*:1]; d(cisHyp) = O=C(O)[C@H]1C[C@@H](O)CN1; Gly(octyl) = CCCCCCCC[C@H](N)C(=O)O; PEG6 = NCCOCCOCCOCCOCCOCCOCCC(=O)O; Hyp = O=C(O)[C@@H]1C[C@@H](O)CN1; X32 = O=C(O)CCCCCCCCCCCCCCCCCCN*; Undecanoyl = CCCCCCCCCCC(=O)*; NMeNle = CCCC[C@H](NC)C(=O)O; Pip = O=C(O)[C@@H]1CCCCN1; NMeA = CN[C@@H](C)C(=O)O; Pra = C#CC[C@H](N)C(=O)O; Dab = NCC[C@H](N)C(=O)O; Dap = NC[C@H](N)C(=O)O

Molecular target: T1, PD-L1 (Homo sapiens, UniProt Q9NZQ7)
T1 construct: hPDL1(19-239)-TVMV-His; made in house; host or cells: HEK293T
T1 sequence (Q9NZQ7 with tags, fused parts or gaps): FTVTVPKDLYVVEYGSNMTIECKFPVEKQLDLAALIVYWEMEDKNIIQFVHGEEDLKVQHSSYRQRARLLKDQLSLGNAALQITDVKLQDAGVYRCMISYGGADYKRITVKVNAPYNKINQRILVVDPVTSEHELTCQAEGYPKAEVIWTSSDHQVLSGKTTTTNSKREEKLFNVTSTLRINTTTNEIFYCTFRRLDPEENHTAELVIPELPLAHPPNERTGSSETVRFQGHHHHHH
Experiment: PD-1/PD-L1 Homogenous Time-Resolved Fluorescence (HTRF) binding assay (PD-1-Ig/PD-L1-His)
Conditions: inhibition of PD-1-Ig binding to PD-L1-TVMV-His, read-out: HTRF IC50
Summary of the method: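 Inhibitors pre-incubated 15 min with PD-L1-His (10 nM final), then PD-1-Ig (20 nM final) added for 15 min in dPBS/0.1% BSA/0.05% Tween-20. Eu-cryptate anti-Ig (1 nM) and APC anti-His (20 nM) added, 30 min equilibration, 665/620 nm HTRF ratio read.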

Row | IC50 (value given as range class) [nM] | IC50 (value given as number) [nM] | SMILES
1 | 0.3 to 9.9 | – | CCCC[C@H]1C(=O)N(C)[C@@H](CCCC)C(=O)N[C@@H](CC(C)C)C(=O)N[C@H](C(=O)NCC(=O)N[C@@H](CC(=O)NCC[C@H](NC(=O)CCCCCCCCCCCCCCCCC(=O)O)C(=O)O)C(=O)O)CSCC(=O)N[C@@H](Cc2ccc(OC)cc2)C(=O)N2CCCC[C@H]2C(=O)N[C@@H](CC(N)=O)C(=O)N2CCC[C@H]2C(=O)N[C@@H](Cc2c[nH]cn2)C(=O)N[C@@H](CCC(N)=O)C(=O)N2C[C@H](O)C[C@H]2C(=O)N[C@@H](Cc2c[nH]c3ccccc23)C(=O)N[C@@H](CCN)C(=O)N[C@@H](Cc2cn(CC(=O)O)c3ccccc23)C(=O)N1C [Example 13156] ({CH2CO}-Y(Me)[Pip]NPHQ[Hyp]W[Dab][Trp(1-CH2COOH)][NMeNle][NMeNle]LCGD(X9)-OH; thioether N-14)
2 | 100 to 1600 | – | CCCCCCCCCCC(=O)NCCCC[C@H](NC(=O)[C@H](CC(=O)O)NC(=O)[C@@H]1CSCC(=O)N[C@@H](Cc2ccc(O)cc2)C(=O)N(C)[C@@H](C)C(=O)N[C@@H](CC(=O)O)C(=O)N2CCC[C@H]2C(=O)N[C@@H](Cc2cnc[nH]2)C(=O)N[C@@H](CC(C)C)C(=O)N2C[C@H](O)C[C@H]2C(=O)N[C@@H](Cc2c[nH]c3ccccc23)C(=O)N[C@@H](CO)C(=O)N[C@@H](Cc2c[nH]c3ccccc23)C(=O)N(C)[C@@H](CCCC)C(=O)N(C)[C@@H](CCCC)C(=O)N[C@@H](CCCNC(=N)N)C(=O)N1)C(N)=O [Example 11008] ({CH2CO}-Y[NMeA]DPHL[Hyp]WSW[NMeNle][NMeNle]RCDK(Undecanoyl)-NH2; thioether N-14)
3 | 10 to 99 | – | CCCC[C@H]1C(=O)N(C)[C@@H](CCCC)C(=O)N[C@@H](CC(C)C)C(=O)N[C@H](C(=O)NCC(=O)NCC(=O)NCCCCCCCCCCCCCCCCCCC(=O)O)CSCC(=O)N[C@@H](Cc2ccc(O)cc2)C(=O)N(C)[C@@H](C)C(=O)N[C@@H](CC(N)=O)C(=O)N2CCC[C@H]2C(=O)N[C@@H](CN)C(=O)N[C@@H](CC(C)C)C(=O)N2C[C@H](O)C[C@H]2C(=O)N[C@@H](Cc2c[nH]c3ccccc23)C(=O)N[C@@H](CCN)C(=O)N[C@@H](Cc2cn(CC(=O)O)c3ccccc23)C(=O)N1C [Example 11193] ({CH2CO}-Y[NMeA]NP[Dap]L[Hyp]W[Dab][Trp(1-CH2COOH)][NMeNle][NMeNle]LCGG-X32; thioether N-14)
4 | 0.3 to 9.9 | – | CCCC[C@H]1C(=O)N(C)[C@@H](CCCC)C(=O)N[C@@H](CC(C)C)C(=O)N[C@H](C(=O)NCC(=O)N[C@@H](CCC(=O)NCCOCCOCCOCCOCCOCCOCCC(=O)NC[C@H](NC(=O)CCCCCCCCCCCCCCC(=O)O)C(=O)O)C(=O)O)CSCC(=O)N[C@@H](Cc2ccc(O)cc2)C(=O)N(C)[C@@H](C)C(=O)N[C@@H](CC(N)=O)C(=O)N2CCC[C@H]2C(=O)N[C@@H](CN)C(=O)N[C@@H](CC(C)C)C(=O)N2C[C@H](O)C[C@@H]2C(=O)N[C@@H](Cc2c[nH]c3ccccc23)C(=O)N[C@@H](CCN)C(=O)N[C@@H](Cc2cn(CC(=O)O)c3ccccc23)C(=O)N1C [Example 11165] ({CH2CO}-Y[NMeA]NP[Dap]L[d(cisHyp)]W[Dab][Trp(1-CH2COOH)][NMeNle][NMeNle]LCG[γGlu][PEG6]-X10; thioether N-14)
5 | 10 to 99 | – | CCCCCCCC[C@H](NC(=O)CNC(=O)CNC(=O)CNC(=O)[C@@H]1CSCC(=O)N[C@@H](Cc2ccc(O)cc2)C(=O)N(C)[C@@H](C)C(=O)N[C@@H](CC(N)=O)C(=O)N2CCC[C@H]2C(=O)N[C@@H](CN)C(=O)N[C@@H](CC(C)C)C(=O)N2C[C@H](O)C[C@H]2C(=O)N[C@@H](Cc2c[nH]c3ccccc23)C(=O)N[C@@H](CCN)C(=O)N[C@@H](Cc2cn(CC(=O)O)c3ccccc23)C(=O)N(C)[C@@H](CCCC)C(=O)N(C)[C@@H](CCCC)C(=O)N[C@@H](CC(C)C)C(=O)N1)C(=O)O [Example 11103] ({CH2CO}-Y[NMeA]NP[Dap]L[Hyp]W[Dab][Trp(1-CH2COOH)][NMeNle][NMeNle]LCGGG[Gly(octyl)]-OH; thioether N-14)
6 | 10 to 99 | – | C#CC[C@H](NC(=O)CNC(=O)[C@@H]1CSCC(=O)N[C@@H](Cc2ccc(O)cc2)C(=O)N(C)[C@@H](C)C(=O)N[C@@H](CC(N)=O)C(=O)N2CCC[C@H]2C(=O)N[C@@H](CN)C(=O)N[C@@H](CC(C)C)C(=O)N2C[C@H](O)C[C@H]2C(=O)N[C@@H](Cc2c[nH]c3ccccc23)C(=O)N[C@@H](CCN)C(=O)N[C@@H](Cc2cn(CC(=O)O)c3ccccc23)C(=O)N(C)[C@@H](CCCC)C(=O)N(C)[C@@H](CCCC)C(=O)N[C@@H](CC(C)C)C(=O)N1)C(=O)N[C@@H](CCC(=O)NCCCOCCOCCOCCCNC(=O)CC[C@H](NC(=O)CCCCCCCCCCCCCCCCC(=O)O)C(=O)O)C(=O)O [Example 11267] ({CH2CO}-Y[NMeA]NP[Dap]L[Hyp]W[Dab][Trp(1-CH2COOH)][NMeNle][NMeNle]LCG[Pra]E(X6)-OH; thioether N-14)
7 | – | 3 | CCCC[C@H]1C(=O)N(C)[C@@H](CCCC)C(=O)N[C@@H](CC(C)C)C(=O)N[C@H](C(=O)NCC(=O)N[C@@H](CC(=O)NCCCOCCOCCOCCCNC(=O)CC[C@H](NC(=O)CCCCCCCCCCCCCCCCC(=O)O)C(=O)O)C(=O)O)CSCC(=O)N[C@@H](Cc2ccc(O)cc2)C(=O)N(C)[C@@H](C)C(=O)N[C@@H](CC(N)=O)C(=O)N2CCC[C@H]2C(=O)N[C@@H](Cc2c[nH]cn2)C(=O)N[C@@H](CCC(=O)O)C(=O)N2C[C@H](O)C[C@H]2C(=O)N[C@@H](Cc2c[nH]c3ccccc23)C(=O)N[C@@H](CCN)C(=O)N[C@@H](Cc2cn(CC(=O)O)c3ccccc23)C(=O)N1C [Example 11179] ({CH2CO}-Y[NMeA]NPHE[Hyp]W[Dab][Trp(1-CH2COOH)][NMeNle][NMeNle]LCGD(X6)-OH; thioether N-14)
8 | 10 to 99 | – | CCCC[C@H]1C(=O)N(C)[C@@H](CCCC)C(=O)N[C@@H](CC(C)C)C(=O)N[C@H](C(=O)NCC(=O)N[C@@H](CCC(=O)NCCCOCCOCCOCCCNC(=O)CC[C@H](NC(=O)CCCCCCCCCCCCCCC(=O)O)C(=O)O)C(=O)O)CSCC(=O)N[C@@H](Cc2ccc(O)cc2)C(=O)N(C)[C@@H](C)C(=O)N[C@@H](CC(N)=O)C(=O)N2CCC[C@H]2C(=O)N[C@@H](CN)C(=O)N[C@@H](CC(C)C)C(=O)N2C[C@H](O)C[C@@H]2C(=O)N[C@@H](Cc2c[nH]c3ccccc23)C(=O)N[C@@H](CCN)C(=O)N[C@@H](Cc2cn(CC(=O)O)c3ccccc23)C(=O)N1C [Example 11159] ({CH2CO}-Y[NMeA]NP[Dap]L[d(cisHyp)]W[Dab][Trp(1-CH2COOH)][NMeNle][NMeNle]LCGE(X13)-OH; thioether N-14)
9 | 100 to 1600 | – | CCCC[C@H]1C(=O)N(C)[C@@H](CCCC)C(=O)N[C@@H](CC(C)C)C(=O)N[C@H](C(=O)NCC(=O)N[C@@H](CC(=O)NCCC[C@H](NC(=O)CCCCCCCCCCCCCCCCC(=O)O)C(=O)O)C(=O)O)CSCC(=O)N[C@@H](Cc2ccc(O)cc2)C(=O)N2CCCC[C@H]2C(=O)N[C@@H](CC(N)=O)C(=O)N2CCC[C@H]2C(=O)N[C@@H](CN)C(=O)N[C@@H](CC(C)C)C(=O)N2C[C@H](O)C[C@H]2C(=O)N[C@@H](Cc2c[nH]c3ccccc23)C(=O)N[C@@H](CCN)C(=O)N[C@@H](Cc2cn(CC(=O)O)c3ccccc23)C(=O)N1C [Example 13141] ({CH2CO}-Y[Pip]NP[Dap]L[Hyp]W[Dab][Trp(1-CH2COOH)][NMeNle][NMeNle]LCGD(δOrn(Nα-Octadecanedioyl))-OH; thioether N-14)
